# From PubChem BioAssay AID2141 (Sanford-Burnham Center for Chemical Genomics, 2009)
# The source made the active and inactive calls. The rule behind the calls is not given here.
# Target: E3 ubiquitin-protein ligase SIAH1 (Homo sapiens) (UniProt Q8IUQ4)
# Experiment: Siah-1 binding antagonists, dose response, biochemical, TR-FRET (AID 2141)
# Conditions: TR-FRET biochemical assay
row,Compound,IC50
1,COCCCNc1c2c3c(cccc3[nH]c1=O)C(=O)c1ccccc1-2,> 200 µM (inactive)
2,CCCCn1c(NC(=O)c2ccco2)c(S(=O)(=O)c2ccc(C)cc2)c2nc3ccccc3nc21,> 200 µM (inactive)
3,COC(=O)c1ccc2c(c1)C(C)(C)C(/C=C/c1ccccc1O)=[N+]2C,> 200 µM (inactive)
4,CC(NC(=O)Nc1ccc(O)cc1)(C(F)(F)F)C(F)(F)F,inactive
5,CCOC(=O)C1(C)C=C(Nc2ccc(O)cc2)C(=O)N1c1ccc(O)cc1 (stereo not given),inactive
6,O=C(Nc1ccc(S(=O)(=O)N2CCOCC2)cc1)c1ccc(=O)[nH]c1,1.89 µM
7,CCOC(=O)/C(C#N)=c1/s/c(=C2\C=Cc3ccccc3N2CC)c(=O)n1CC,> 200 µM (inactive)
8,O=c1[nH]c(-c2ccc(F)cc2)nc2c1sc(=S)n2-c1ccccc1,> 200 µM (inactive)
9,N#C/C(=C\c1c(F)cccc1Cl)C(=O)NC1CC1,> 200 µM (inactive)
10,CCCCNc1nnc(Cc2ccc(Cl)cc2)c(=O)[nH]1,inactive
11,Nc1c(C(=O)NCc2ccco2)c2nc3ccccc3nc2n1CCc1ccccc1,1.77 µM
12,O=C1CCCC(O)=C1N=Nc1ccc(C(=O)O)cc1,< 1.56 µM
13,COc1cccc2cc(C(=O)N3CCc4ccccc43)c(=O)oc12,> 200 µM (inactive)
14,COC(=O)c1cccc(Cn2c(Cl)c(/C=N/NC(=O)c3ccccc3Cl)sc2=O)c1,19 µM
15,Cc1cc(C)c(C#N)c(Nc2ccccc2C)n1,> 200 µM (inactive)
16,O=C(O)c1cc(O)c2c(c1)C(=O)c1cccc(O)c1C2=O,> 200 µM (inactive)
17,O=C(NCc1ccc(Cl)cc1)c1cc(-c2cccs2)on1,6.3 µM
18,C[N+]1(CCNC(=O)/C=N/O)CCCCC1,inactive
19,CC(C)(C)c1cc(-c2csc(Nc3ccccc3)[n+]2Cc2ccc(C(=O)O)cc2)cc(C(C)(C)C)c1O,6.69 µM
20,COc1ccc(CCNC(=O)CCC(=O)N2CCOc3ccc(C)cc32)cc1OC,> 200 µM (inactive)
21,O=c1[nH]n(-c2ccc([N+](=O)[O-])cc2)c(=O)c2ccccc12,11.2 µM
22,CN1/C(=C\C=C\C2=[N+](C)c3ccc4ccccc4c3C2(C)C)C(C)(C)c2ccccc21,> 200 µM (inactive)
23,CC1=CC(C)(C)N2C(=O)C(=Nc3ccc(O)cc3)c3cccc1c32,5.61 µM
24,Cc1ccn2c(C(=O)CSc3ccc(Cl)cc3Cl)c(C)nc2c1,> 200 µM (inactive)

row,Compound,IC50
1,O=c1ccc2c(-c3ccccc3)c3ccc(O)cc3oc-2c1,> 200 µM (inactive)
2,O=C(Nc1ccc(Cl)cc1)c1ccc(S(=O)(=O)N2CCOCC2)cc1,> 200 µM (inactive)
3,CN1C(=O)NC(c2ccccc2[N+](=O)[O-])C2=C1CCCC2=O (stereo not given),> 200 µM (inactive)
4,CC1CCN(S(=O)(=O)c2nnc(NC(=O)c3cccc(Cl)c3)s2)CC1,> 200 µM (inactive)
5,C=CCn1c(NS(=O)(=O)c2ccccc2)c(S(=O)(=O)c2ccc(C)cc2)c2nc3ccccc3nc21,< 1.56 µM
6,CCN(CC)CCOC(=O)c1ccc(N/C=C(/C#N)c2nc(-c3cc4ccccc4oc3=O)cs2)cc1,> 200 µM (inactive)
7,NS(=O)(=O)c1ccc(NS(=O)(=O)c2ccc(NC(=O)c3ccc(-c4ccccc4)cc3)cc2)cc1,< 1.56 µM
8,c1ccc(C(c2ccccc2)N2CCN(C(c3ccccn3)c3nnnn3C3CCCC3)CC2)cc1 (stereo not given),> 200 µM (inactive)
9,O=C(O)CCCNc1cc(N2CCN(C(=O)c3ccco3)CC2)c2noc3c2c1C(=O)c1ccccc1-3,5.41 µM
10,CC12CCC(C(=O)NCc3ccc(Cl)cc3)(OC1=O)C2(C)C (stereo not given),> 200 µM (inactive)
11,CC(=O)c1ccc(S(=O)(=O)Nc2ccc(-c3ccc4nnc(C)n4n3)cc2)cc1,9.93 µM
12,CS(=O)(=O)N1CCN(c2ccc([N+](=O)[O-])c(SCc3ccco3)c2)CC1,> 200 µM (inactive)
13,Cc1ccc(NC(=O)CCC(=O)NNC(=O)c2ccccc2[N+](=O)[O-])c(C)c1,> 200 µM (inactive)
14,COc1ccc(C(C(=O)NCc2ccccc2)N(Cc2ccco2)C(=O)c2cnccn2)cc1 (stereo not given),> 200 µM (inactive)
15,CCCCN(Cc1cc2cc(OC)ccc2[nH]c1=O)S(=O)(=O)c1ccc(C)cc1,17.2 µM
16,O=C(/C=C/c1ccco1)OCc1nnc(-c2ccccc2)o1,4.37 µM
17,COCCn1nnnc1C(c1cc2ccc(OC)cc2[nH]c1=O)N1CCc2ccccc2C1 (stereo not given),11.8 µM
18,CCN(CC)c1ccc(/C=c2\sc3nnc(-c4ccccc4Cl)n3c2=O)cc1,> 200 µM (inactive)
19,CCc1nnc(NS(=O)(=O)c2ccc(NC(=S)NC(=O)/C=C/c3ccc(C(C)C)cc3)cc2)s1,8.87 µM
20,Cc1ccc(S(=O)(=O)N2CCC(=O)N(C(COCc3cccc(C)c3)Cc3ccccc3)CC2)cc1 (stereo not given),> 200 µM (inactive)
21,Cc1ccc(-n2cccn2)c([C@@H]2C[C@H]3CN(C)C(=O)[C@]34CCCN24)c1,> 200 µM (inactive)
22,O=c1[nH]c2ccc(S(=O)(=O)N3CCCCC3)cc2s1,> 200 µM (inactive)
23,CCOc1cc(/C=C(\C#N)C(=O)Nc2ccccc2C(=O)O)ccc1OC(=O)c1ccc(C)cc1,> 200 µM (inactive)
24,Oc1ccc(N=Cc2ccc(OCc3ccccc3)cc2)cc1,3.74 µM

row,Compound,IC50
1,COc1cc(NS(=O)(=O)c2ccc(NC(=S)NC(=O)/C=C/c3ccc(F)cc3)cc2)ncn1,> 200 µM (inactive)
2,CC1CCCCC1NC(=O)CCS(=O)(=O)c1ccc2c(c1)NC(=O)CO2 (stereo not given),> 200 µM (inactive)
3,Cc1coc2c(C)c3oc(=O)c(CCC(=O)N[C@@H](C)C(=O)N[C@@H](Cc4ccccc4)C(=O)O)c(C)c3cc12,11.4 µM
4,CC1CCN(C(=O)C2CCC(C)(C(=O)O)C2(C)C)CC1 (stereo not given),> 200 µM (inactive)
5,CN(Cc1c(C(=O)N/N=C/c2ccc(F)cc2)nnn1-c1nonc1N)C1CCCCC1,> 200 µM (inactive)
6,O=C(O)CCCCN1C(=O)/C(=C\c2ccc(OCc3ccccc3)c(OCc3ccccc3)c2)SC1=S,4.03 µM
7,O=S(=O)(O)c1cc(O)c2c(O)c(N=Nc3cc(Cl)ccc3O)c(S(=O)(=O)O)cc2c1,2.14 µM
8,O=C(CC1Nc2cccc3cccc(c23)NC1=O)Nc1ccccc1 (stereo not given),6.36 µM
9,COc1cc(CNc2ccc(O)cc2)cc(Br)c1OCc1ccccc1F,4.66 µM
10,Cc1cc(Cl)ccc1NC(=O)CN1CCC(C(O)(c2ccccc2)c2ccccc2)CC1,> 200 µM (inactive)
11,COc1cc(/C=C(\C#N)c2nc3ccccc3[nH]2)ccc1OC(=O)c1ccco1,6.22 µM
12,O=C(N/N=C/c1cccc(Br)c1)c1ccc(Br)cc1,2.54 µM
13,Cc1cc(C)n2ncc(C(=O)Nc3ccc4c(c3)OCO4)c2n1,inactive
14,CCCCNc1c2c3c(cccc3n(C)c1=O)C(=O)c1ccccc1-2,> 200 µM (inactive)
15,C=CCc1cccc2cc(C(=O)Nc3ccc(CC(=O)O)cc3)c(=O)oc12,9.1 µM
16,CCOC(=O)c1c(C)[nH]c2c1-c1ccccc1C(=O)C2=O,> 200 µM (inactive)
17,COc1cc(CC(=O)NCc2ccc3c(c2)OCO3)cc(OC)c1OC,inactive
18,Cc1c(Cc2ccccc2)c(=O)oc2c(C)c(OCC(=O)N[C@@H](Cc3ccccc3)C(=O)O)ccc12,4.38 µM
19,COC(=O)C1C=C2c3cccc4[nH]cc(c34)CC2N(C)C1 (stereo not given),1.85 µM
20,CC1(C)Cc2c(sc(/N=C/N3CCCCCC3)c2C#N)C(C)(C)N1,> 200 µM (inactive)
21,COc1cc(/C=C2/SC(=S)N(Cc3ccccc3)C2=O)cc(Cl)c1O,> 200 µM (inactive)
22,Cc1ccc(OCCCN2CCOCC2)cc1,> 200 µM (inactive)
